Data on 15 molecules can be found in PubChem BioAssay AID248 (DTP/NCI, 2004).

Where “and” joins values, the source holds several entries; their conditions need not be identical. Equal values may be shown once. Inconclusive results and toxic doses are left out.

This assay deals with L1210 leukemia ip in BDF1 mice, survival T/C. Description: NCI In Vivo Anticancer Drug Screen. Data for tumor model L1210 Leukemia (intraperitoneal) in B6D2F1 (BDF1) mice. The conditions noted are these: endpoint: mean survival time, higher = longer survival. An outline of the steps: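 Tumor cells were implanted, animals were treated, and survival was followed. The result divides the treated measurement by the vehicle-control measurement.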

Where [1] appears, read: dose: 75.0 mg/kg/injection, schedule: Q01DX001 (ip), vehicle: saline.
The mark [2] stands for this setting: dose: 150.0 mg/kg/injection, schedule: Q01DX001 (ip), vehicle: saline.

For the molecule `NC(=Nc1ccccc1)C(N)=Nc1ccccc1`, the T/C runs as follows: (dose: 100.0 mg/kg/injection, schedule: Q04DX002 (ip), vehicle: gum acacia) 107 % of control; (dose: 200.0 mg/kg/injection, schedule: Q04DX002 (ip), vehicle: gum acacia) 96 % of control; (dose: 400.0 mg/kg/injection, schedule: Q04DX002 (ip), vehicle: gum acacia) 93 % of control.

For the molecule `Cc1noc(N)c1C#N`, the T/C is, setting by setting: (dose: 100.0 mg/kg/injection, schedule: Q04DX002 (ip), vehicle: saline with Tween-80) 100 % of control; (dose: 200.0 mg/kg/injection, schedule: Q04DX002 (ip), vehicle: saline with Tween-80) 95 % of control; (dose: 400.0 mg/kg/injection, schedule: Q04DX002 (ip), vehicle: saline with Tween-80) 89 % of control.

Consider `COc1cc(Br)c2c(c1OC)C1(CC[N+](C)(C)C)CC(=O)CCC1CC2` (centres undefined), for which the T/C is, setting by setting: (dose: 12.5 mg/kg/injection, schedule: Q01DX001 (ip), vehicle: saline) 97 % of control; (dose: 25.0 mg/kg/injection, schedule: Q01DX001 (ip), vehicle: saline) 97 % of control; (dose: 50.0 mg/kg/injection, schedule: Q01DX001 (ip), vehicle: saline) 94 % of control; (dose: 100.0 mg/kg/injection, schedule: Q01DX001 (ip), vehicle: saline) 97 % of control.

For the molecule `COc1cc(Cc2cnc(NC(C)=O)nc2NC(C)=O)cc(OC)c1OC`, the T/C (dose: 12.5 mg/kg/injection, schedule: Q01DX009 (ip), vehicle: saline with Tween-80) is 92 % of control; the T/C (dose: 12.5 mg/kg/injection, schedule: Q04DX003 (ip), vehicle: saline with Tween-80) is 101 % of control; the T/C (dose: 25.0 mg/kg/injection, schedule: Q01DX009 (ip), vehicle: saline with Tween-80) is 95 % of control; the T/C (dose: 25.0 mg/kg/injection, schedule: Q04DX003 (ip), vehicle: saline with Tween-80) was 101 % of control; the T/C (dose: 50.0 mg/kg/injection, schedule: Q01DX009 (ip), vehicle: saline with Tween-80) is 88 % of control; the T/C (dose: 50.0 mg/kg/injection, schedule: Q04DX003 (ip), vehicle: saline with Tween-80) was 95 % of control.

`Cc1nccn1-c1ccccc1N=Cc1ccc(N(CCCl)CCCl)cc1Cl`: the T/C (dose: 100.0 mg/kg/injection, schedule: Q04DX002 (ip), vehicle: saline) is 102 % of control; the T/C (dose: 200.0 mg/kg/injection, schedule: Q04DX002 (ip), vehicle: saline) is 102 % of control; the T/C (dose: 400.0 mg/kg/injection, schedule: Q04DX002 (ip), vehicle: saline) is 98 % of control.

For `Cc1ccc(OC(=O)NC(C)(C)C)cc1`, the T/C is, setting by setting: (dose: 100.0 mg/kg/injection, schedule: Q04DX002 (ip), vehicle: Klucel (hydroxypropylcellulose) (HPC)) 105 % of control; (dose: 200.0 mg/kg/injection, schedule: Q04DX002 (ip), vehicle: Klucel (hydroxypropylcellulose) (HPC)) 109 % of control; (dose: 400.0 mg/kg/injection, schedule: Q04DX002 (ip), vehicle: Klucel (hydroxypropylcellulose) (HPC)) 105 % of control.

On to `CN(C)c1ccc(P(=O)(c2ccc(N(C)C)cc2)c2ccc(N(C)C)cc2)cc1.CN(C)c1ccc(P(=O)(c2ccc(N(C)C)cc2)c2ccc(N(C)C)cc2)cc1.[Cl][Sn]([Cl])([Cl])[Cl]`, for which the T/C was 87 % of control (dose: 50.0 mg/kg/injection, schedule: Q01DX009 (ip), vehicle: Klucel (hydroxypropylcellulose) (HPC)); 91 % of control (dose: 100.0 mg/kg/injection, schedule: Q01DX009 (ip), vehicle: Klucel (hydroxypropylcellulose) (HPC)); 94 % of control (dose: 200.0 mg/kg/injection, schedule: Q01DX009 (ip), vehicle: Klucel (hydroxypropylcellulose) (HPC)).

As for `OC(CN(CCCl)CCCl)C(O)C(O)C(O)CN(CCCl)CCCl` (centres undefined), the T/C is, setting by setting: (dose: 0.06 mg/kg/injection, schedule: Q01DX Z (ip), vehicle: saline) 102 % of control; (dose: 0.1 mg/kg/injection, schedule: Q01DX Z (ip), vehicle: saline) 102 % of control; (dose: 0.15 mg/kg/injection, schedule: Q01DX Z (ip), vehicle: saline) 105 % of control; (dose: 0.23 mg/kg/injection, schedule: Q01DX Z (ip), vehicle: saline) 110 % of control; (dose: 0.25 mg/kg/injection, schedule: Q01DX Z (ip), vehicle: saline) 103 % of control; (dose: 0.35 mg/kg/injection, schedule: Q01DX001 (ip), vehicle: saline) 150 % of control. In addition, the T/C (dose: 0.6 mg/kg/injection, schedule: Q01DX Z (ip), vehicle: carboxymethylcellulose (CMC)) is 108 % of control; the T/C (dose: 0.8 mg/kg/injection, schedule: Q01DX001 (ip), vehicle: saline) is 154 % of control; the T/C (dose: 0.8 mg/kg/injection, schedule: Q01DX Z (ip), vehicle: saline) was 153 % of control and 170 % of control; the T/C (dose: 0.9 mg/kg/injection, schedule: Q01DX Z (ip), vehicle: carboxymethylcellulose (CMC)) was 102 % of control; the T/C (dose: 1.0 mg/kg/injection, schedule: Q01DX001 (ip), vehicle: saline) was 122 % of control; the T/C (dose: 1.35 mg/kg/injection, schedule: Q01DX Z (ip), vehicle: carboxymethylcellulose (CMC)) is 96 % of control. The T/C was 158 % of control (dose: 1.9 mg/kg/injection, schedule: Q01DX001 (ip), vehicle: saline); 174 % of control (dose: 2.0 mg/kg/injection, schedule: Q01DX001 (ip), vehicle: saline); 155 % of control and 188 % of control (dose: 2.0 mg/kg/injection, schedule: Q01DX Z (ip), vehicle: saline); 118 % of control (dose: 2.03 mg/kg/injection, schedule: Q01DX Z (ip), vehicle: carboxymethylcellulose (CMC)); 152 % of control (dose: 4.0 mg/kg/injection, schedule: Q01DX001 (ip), vehicle: saline); 117 % of control (dose: 4.0 mg/kg/injection, schedule: Q01DX Z (ip), vehicle: saline). For the same molecule, the T/C is 194 % of control (dose: 5.0 mg/kg/injection, schedule: Q01DX001 (ip), vehicle: saline); 118 % of control (dose: 6.7 mg/kg/injection, schedule: Q01DX Z (ip), vehicle: saline); 97 % of control (dose: 8.0 mg/kg/injection, schedule: Q01DX001 (ip), vehicle: saline).

Take `N#Cc1cc[n+](Cc2ccccc2)cc1`: the T/C is, setting by setting: under setting [1], 101 % of control; under setting [2], 102 % of control.

As for `C=CC(C)(C)c1c(OC(C)=O)cc2oc3c(OC(C)=O)c(OC(C)=O)cc(CC=C(C)C)c3c(=O)c2c1O`, the T/C by setting is: (dose: 100.0 mg/kg/injection, schedule: Q01DX001 (ip), vehicle: carboxymethylcellulose (CMC)) 95 % of control; (dose: 200.0 mg/kg/injection, schedule: Q01DX001 (ip), vehicle: carboxymethylcellulose (CMC)) 92 % of control; (dose: 400.0 mg/kg/injection, schedule: Q01DX001 (ip), vehicle: carboxymethylcellulose (CMC)) 111 % of control.

Consider `Oc1[nH]c2ccccc2c1N=NC(=S)Nc1ccccc1`, for which the T/C was 91 % of control under setting [1] and 87 % of control under setting [2].

In the case of `ICc1nc2ccccc2[nH]1`, the T/C (dose: 9.38 mg/kg/injection, schedule: Q01DX001 (ip), vehicle: steriod suspending solution) is 95 % of control; the T/C (dose: 18.75 mg/kg/injection, schedule: Q01DX001 (ip), vehicle: steriod suspending solution) was 105 % of control; the T/C (dose: 37.5 mg/kg/injection, schedule: Q01DX001 (ip), vehicle: steriod suspending solution) was 94 % of control.

On to `N=C(N)c1ccc(OCCCCCOc2ccc(C(=N)N)cc2)cc1`, for which the T/C (dose: 12.5 mg/kg/injection, schedule: Q01DX Z (oral), vehicle: saline) is 95 % of control; the T/C (dose: 25.0 mg/kg/injection, schedule: Q01DX Z (oral), vehicle: saline) is 95 % of control; the T/C (dose: 50.0 mg/kg/injection, schedule: Q01DX Z (oral), vehicle: saline) was 100 % of control; the T/C (dose: 100.0 mg/kg/injection, schedule: Q01DX Z (oral), vehicle: saline) is 100 % of control.

With `O=C1OCCN1c1ccc(S(=O)(=O)c2ccc(N3CCOC3=O)cc2)cc1`, the T/C is 98 % of control (dose: 100.0 mg/kg/injection, schedule: Q01DX009 (ip), vehicle: saline with Tween-80); 102 % of control (dose: 100.0 mg/kg/injection, schedule: Q04DX003 (ip), vehicle: saline with Tween-80); 93 % of control (dose: 200.0 mg/kg/injection, schedule: Q01DX009 (ip), vehicle: saline with Tween-80); 102 % of control (dose: 200.0 mg/kg/injection, schedule: Q04DX003 (ip), vehicle: saline with Tween-80); 95 % of control (dose: 400.0 mg/kg/injection, schedule: Q01DX009 (ip), vehicle: saline with Tween-80); 96 % of control (dose: 400.0 mg/kg/injection, schedule: Q04DX003 (ip), vehicle: saline with Tween-80).

Regarding `CCCCCCCCCCN(CCCCCCCCCC)S(=O)(=O)c1ccc(OC)c([N+](=O)[O-])c1`, the T/C was 100 % of control (dose: 75.0 mg/kg/injection, schedule: Q01DX001 (ip), vehicle: other); 93 % of control (dose: 150.0 mg/kg/injection, schedule: Q01DX001 (ip), vehicle: other); 90 % of control (dose: 300.0 mg/kg/injection, schedule: Q01DX001 (ip), vehicle: other).
